Results on 32 molecules are retold here after patent US20060223792A1, “Phenyl and pyridyl LTA4H modulators” (priority 2005, published 2006).

In general, IC50 refers to the concentration that gives 50% inhibition.

The target of the assay is T1, recombinant human LTA4 hydrolase (rhLTA4H) (Homo sapiens, UniProt P09960).
T1 construct: made in house; host or cells: Spodoptera frugiperda (Sf-9) cells, baculovirus (pFastBac1)
T1 sequence (P09960 1-611): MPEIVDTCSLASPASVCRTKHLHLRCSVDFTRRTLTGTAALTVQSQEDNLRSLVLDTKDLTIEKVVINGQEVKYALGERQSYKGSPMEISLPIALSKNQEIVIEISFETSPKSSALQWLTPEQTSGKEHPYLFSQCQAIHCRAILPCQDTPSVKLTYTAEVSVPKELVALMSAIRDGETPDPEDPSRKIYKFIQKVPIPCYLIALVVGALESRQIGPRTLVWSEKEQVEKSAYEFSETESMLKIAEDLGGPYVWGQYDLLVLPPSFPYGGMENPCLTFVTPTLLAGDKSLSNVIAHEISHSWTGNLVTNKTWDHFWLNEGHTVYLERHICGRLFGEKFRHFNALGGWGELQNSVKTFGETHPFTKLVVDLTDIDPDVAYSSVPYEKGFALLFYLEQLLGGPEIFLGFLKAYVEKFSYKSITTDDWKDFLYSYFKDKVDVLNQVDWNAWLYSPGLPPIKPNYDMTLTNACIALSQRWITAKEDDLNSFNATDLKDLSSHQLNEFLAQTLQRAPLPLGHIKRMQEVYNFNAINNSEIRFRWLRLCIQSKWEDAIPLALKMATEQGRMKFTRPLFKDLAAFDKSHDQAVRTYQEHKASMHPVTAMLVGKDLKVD
Kind of assay: Recombinant human LTA4 hydrolase assay for LTA4 hydrolase inhibitor activity. It counts as biochemical. The note with it: recombinant human LTA4H, LTB4 quantified by enzyme-linked immunoassay; average of one to three determinations; read-out: IC50. Here is the method:
Recombinant Human LTA4 Hydrolase Assay for LTA4 Hydrolase Inhibitor Activity
Compounds of the present invention were tested for LTA4 hydrolase inhibitor activity against recombinant human LTA4 hydrolase (rhLTA4H). Vectors were prepared and used to express rhLTA4H essentially as follows: LTA4 hydrolase encoding DNA was amplified by polymerase chain reaction (PCR) using a human placental cDNA library as a template. Oligonucleotide primers for the PCR reaction were based on the 5′-end, and the complement of the 3′-end, of the published nucleotide sequence for the coding region of the human LTA4 hydrolase gene (C. D. Funk et al., Proc. Natl. Acad. Sci. USA 1987, 84:6677-6681). The amplified […] DNA fragment encoding LTA4 hydrolase was isolated and cloned into the pFastBac1 vector (Invitrogen). Recombinant baculovirus was generated as described by the manufacturer, and used to infect Spodoptera frugiperda (Sf-9) cells. Recombinant LTA4 hydrolase enzyme was purified from the infected Sf-9 cells essentially as described by J. K. Gierse et al. (Protein Expr. Purif. 1993, 4(5):358-366). The purified enzyme solution was adjusted to contain 0.29 mg/mL LTA4 hydrolase, 50 mM Tris (pH 8.0),150 mM NaCl, 5 mM dithiothreitol, 50% glycerol, and EDTA-free Complete protease inhibitor cocktail (Roche). The specific activity of the enzyme was about 3.8 μmol/min/mg.
LTA4 substrate was prepared from the methyl ester of LTA4 (Cayman Chemical) by treatment with 67 equiv. of NaOH under nitrogen at rt for 40 min. The LTA4 substrate in its free acid form was kept frozen at −80° C. until needed. Each compound was diluted to different concentrations in assay buffer (0.1 M potassium phosphate (pH 7.4), 5 mg/mL fatty acid free BSA) containing 10% DMSO. A 25-μL aliquot of each compound dilution was incubated for 10 min at rt with an equal volume of assay buffer containing 36 ng of recombinant human LTA4H. The solution was then adjusted to 200 μL with assay buffer. LTA4 (free acid) was thawed and diluted in assay buffer to a concentration of 357 ng/mL, and 25 μL (9 ng) of LTA4 substrate was added to the reaction mixture (total volume=225 μL) at time zero. Each reaction was carried out at rt for 10 min. The reaction was stopped by diluting 10 μL of the reaction mixture with 200 μL of assay buffer. LTB4 was quantifiedin the diluted sample by a commercially available enzyme-linked immunoassay (Cayman Chemical Co.), as recommended by the manufacturer. Positive controls, under essentially identical conditions but without addition of an inhibitor compound, and negative controls, containing all assay components except enzyme, were routinely run in each experiment. IC50 values were determined by fitting the activity data at different compound concentrations to a 4-parameter equation using the Grafit program (Erithacus software).
The IC50 values presented in the table below should be expected to fall within the typical three-fold variability of assays of this type. The values presented here are, in general, an average of one to three determinations.

For the molecule `COC(=O)C1CCN(CCc2ccc(OCC(=O)c3ccccc3)cc2)CC1` [Example 75, 1-{2-[4-(2-Oxo-2-phenyl-ethoxy)-phenyl]-ethyl}-piperidine-4-carboxylic acid methyl ester], the IC50 is 42 nM. Under `Fc1cccc(CCOc2ccc(OCCN3CCCCC3)cc2)c1` [Example 165, 1-(2-{4-[2-(3-Fluoro-phenyl)-ethoxy]-phenoxy}-ethyl)-piperidine] stands 900 nM.

Consider `O=C(O)C1CCCN(C2CCN(CCc3ccc(OCCc4ccccc4)cc3)CC2)C1` (centres unmarked) [Example 19, 1′-[2-(4-Phenethyloxy-phenyl)-ethyl]-[1,4′]bipiperidinyl-3-carboxylic acid], for which the concentration for half-maximal inhibition (IC50) was determined as 223 nM. Turning to `c1ccc(CCCCOc2ccc(CN3CCCCC3)cc2)cc1` [Example 98, 1-[4-(4-Phenyl-butoxy)-benzyl]-piperidine], the IC50 came to 167 nM. In the case of `O=C1CCCCN1C1CCN(CCc2ccc(OCC(O)c3ccccc3)cc2)CC1` (centres unmarked) [Example 27, 1′-{2-[4-(2-Hydroxy-2-phenyl-ethoxy)-phenyl]-ethyl}-[1,4′]bipiperidinyl-2-one] it was 4 nM; in that of `CCN(CC)CCOc1ccc(OC(=O)Nc2ccccc2)cc1` [Example 46, Phenyl-carbamic acid 4-(2-diethylamino-ethoxy)-phenyl ester], 7 nM; in that of `OC1c2ccccc2CC1Oc1ccc(OCCN2CCCCC2)cc1` (centres unmarked) [Example 125, 2-[4-(2-Piperidin-1-yl-ethoxy)-phenoxy]-indan-1-ol], 192 nM.

For the molecule `O=C(Nc1ccccc1)Oc1ccc(CCN2CCCC2)cc1` [Example 60, Phenyl-carbamic acid 4-(2-pyrrolidin-1-yl-ethyl)-phenyl ester], the concentration for half-maximal inhibition (IC50) came out at 4 nM. In the case of `O=C(Oc1ccc(OCCN2CCCCC2)cc1)C1Cc2ccccc2C1` [Example 124, Indan-2-carboxylic acid 4-(2-piperidin-1-yl-ethoxy)-phenyl ester] it was 184 nM; in that of `CCOC(=O)C1CCCCN1C1CCN(CCc2ccc(OCCc3ccccc3)cc2)CC1` (centres unmarked) [Example 66, 1′-[2-(4-Phenethyloxy-phenyl)-ethyl]-[1,4′]bipiperidinyl-2-carboxylic acid ethyl ester], 88 nM. Consider `COC(=O)C1CCN(CCc2ccc(OCC(O)c3ccccc3)cc2)CC1` (centres unmarked) [Example 76, 1-{2-[4-(2—hydroxy-2-phenyl-ethoxy)-phenyl]-ethyl}-piperidine-4-carboxylic acid methyl ester], for which the IC50 was 3 nM. On to `O=C(Nc1ccc(O)cc1)Oc1ccc(OCCN2CCC(O)(c3ccccc3)CC2)cc1` [Example 39, (4—hydroxy-phenyl)-carbamic acid 4-[2-(4-hydroxy-4-phenyl-piperidin-1-yl)-ethoxy]-phenyl ester], for which the IC50 stood at 0.4 nM. In the case of `O=C(Nc1ccccc1)Oc1ccc(OCCCN2CCC(O)(c3ccccc3)CC2)cc1` [Example 42, Phenyl-carbamic acid 4-[3-(4-hydroxy-4-phenyl-piperidin-1-yl)-propoxy]-phenyl ester] it was 1 nM; in that of `Fc1ccc(CCOc2ccc(OCCN3CCCCC3)cc2)cc1` [Example 166, 1-(2-{4-[2-(4-Fluoro-phenyl)-ethoxy]-phenoxy}-ethyl)-piperidine], 248 nM. Under `c1ccc(CCCOc2ccc(CN3CCCCC3)cc2)cc1` [Example 97, 1-[4-(3-Phenyl-propoxy)-benzyl]-piperidine] stands 31 nM. In the case of `CCN(CCc1ccc(OCC(=O)c2ccccc2)cc1)C1CCCCC1` [Example 72, 2-{4-[2-(Cyclohexyl-ethyl-amino)-ethyl]-phenoxy}-1-phenyl-ethanone] it was 10 nM; in that of `NC1CCN(Cc2ccc(OCCc3ccccc3)cc2)CC1` [Example 105, 1-(4-Phenethyloxy-benzyl)-piperidin-4-ylamine], 25 nM.

For `O=C(O)C1CCN(CCOc2ccc(OCCc3ccccc3)cc2)CC1` [Example 86, 1-[2-(4-Phenethyloxy-phenoxy)-ethyl]-piperidine-4-carboxylic acid], the half-maximal inhibitory concentration (IC50) came out at 17 nM.

For `NC(=O)C1CCN(Cc2ccc(OCCCc3ccccc3)cc2)CC1` [Example 110, 1-[4-(3-Phenyl-propoxy)-benzyl]-piperidine-4-carboxylic acid amide], the IC50 amounted to 9 nM. In the case of `O=C(Cc1ccccc1)Oc1ccc(OCCN2CCCCC2)cc1` [Example 21, Phenyl-acetic acid 4-(2-piperidin-1-yl-ethoxy)-phenyl ester] it was 1 nM; in that of `NC(=O)C1CCN(CCc2ccc(OCC(O)c3ccccc3)cc2)CC1` (centres unmarked) [Example 78, 1-{2-[4-(2-Hydroxy-2-phenyl-ethoxy)-phenyl]-ethyl}-piperidine-4-carboxylic acid amide], 6 nM. Turning to `O=C(Nc1ccccc1)Oc1ccc(OCCN2CCC(O)(c3ccc(Cl)c(C(F)(F)F)c3)CC2)cc1` [Example 54, Phenyl-carbamic acid 4-{2-[4-(4-chloro-3-trifluoromethyl-phenyl)-4-hydroxy-piperidin-1-yl]-ethoxy}-phenyl ester], the IC50 amounted to 7 nM.

As to `O=C(COc1ccc(CCN2CCC(N3CCCCC3=O)CC2)cc1)c1ccccc1` [Example 26, 1′-{2-[4-(2-Oxo-2-phenyl-ethoxy)-phenyl]-ethyl}-[1,4′]bipiperidinyl-2-one], the IC50 stood at 343 nM. Under `COC(=O)NC1CCN(Cc2ccc(OCCc3ccccc3)cc2)CC1` [Example 115, [1-(4-Phenethyloxy-benzyl)-piperidin-4-yl]-carbamic acid methyl ester] stands 78 nM; under `NC(=O)NC1CCN(Cc2ccc(OCCCc3ccccc3)cc2)CC1` [Example 122, {1-[4-(3-Phenyl-propoxy)-benzyl]-piperidin-4-yl}-urea], 35 nM; under `O=C(Nc1ccccc1)Oc1ccc(OCCN2CCC(O)(c3ccc(Cl)cc3)CC2)cc1` [Example 57, Phenyl-carbamic acid 4-{2-[4-(4-chloro-phenyl)-4-hydroxy-piperidin-1-yl]-ethoxy}-phenyl ester], 0.3 nM.

On to `COC(=O)C1CCN(CCc2ccc(OCCc3ccccc3)cc2)CC1` [Example 77, 1-[2-(4-Phenethyloxy-phenyl)-ethyl]-piperidine-4-carboxylic acid methyl ester], for which the IC50 was 6 nM.

As to `OC(COc1ccc(OCCN2CCCCC2)cc1)c1ccccc1` (centres unmarked) [Example 71, 1-Phenyl-2-[4-(2-piperidin-1-yl-ethoxy)-phenoxy]-ethanol], the concentration for half-maximal inhibition (IC50) came to 5 nM. In the case of `O=C(Nc1ccccc1)Oc1ccc(OCCN2CCC(O)CC2)cc1` [Example 53, Phenyl-carbamic acid 4-[2-(4-hydroxy-piperidin-1-yl)-ethoxy]-phenyl ester] it was 3 nM; in that of `O=C(Oc1ccc(OCCN2CCCCC2)cc1)c1cc2ccccc2[nH]1` [Example 23, 1H-Indole-2-carboxylic acid 4-(2-piperidin-1-yl-ethoxy)-phenyl ester], 75 nM.

In the case of `O=C1NCCC12CCN(Cc1ccc(OCCc3ccccc3)cc1)CC2` [Example 100, 8-(4-Phenethyloxy-benzyl)-2,8-diaza-spiro[4.5]decan-1-one], the IC50 came to 121 nM.

With `OC1CCN(Cc2ccc(OCCc3ccccc3)cc2)CC1` [Example 103, 1-(4-Phenethyloxy-benzyl)-piperidin-4-ol], the concentration for half-maximal inhibition (IC50) amounted to 70 nM.
